# Molecular target: T1, Drak2 (Homo sapiens, UniProt O94768)
# T1 sequence (O94768 1-372): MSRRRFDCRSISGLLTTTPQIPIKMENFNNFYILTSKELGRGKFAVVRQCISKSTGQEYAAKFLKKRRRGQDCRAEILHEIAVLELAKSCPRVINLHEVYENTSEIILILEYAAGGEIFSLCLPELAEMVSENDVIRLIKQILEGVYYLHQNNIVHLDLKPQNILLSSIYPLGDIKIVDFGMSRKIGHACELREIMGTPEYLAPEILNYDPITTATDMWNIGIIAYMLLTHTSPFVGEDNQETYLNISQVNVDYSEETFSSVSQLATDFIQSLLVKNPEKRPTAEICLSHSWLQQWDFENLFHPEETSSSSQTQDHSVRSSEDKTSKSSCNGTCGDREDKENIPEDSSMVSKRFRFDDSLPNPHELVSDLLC
# Experiment: Drak2 activity test, ADP-Glo kinase assay (Promega)
# Assay type: biochemical
# Conditions: inhibition of Drak2 kinase activity, 2 h room temperature, activity range classes, read-out: IC50_Drak2
row,Structure (SMILES),IC50
1,"CCCCC(=O)Nc1csc(-c2cncc(-c3ccc4c(c3)OCO4)n2)c1 [Example A23, N-(5-(6-(benzo[d][1,3]dioxol-5-yl)pyrazin-2-yl)thiophen-3-yl)pentanamide]",101 to 1000 nM
2,"CCCCC(=O)Nc1csc(-c2cncc(-c3ccc(OC)c(Cl)c3)n2)c1 [Example A19, N-(5-(6-(3-chloro-4-methoxyphenyl)pyrazin-2-yl)thiophen-3-yl)pentanamide]",101 to 1000 nM
3,"O=C(Nc1csc(-c2cncc(-c3ccc4c(c3)OCO4)n2)c1)C1CCC1 [Example A24, N-(5-(6-(benzo[d][1,3]dioxol-5-yl)pyrazin-2-yl)thiophen-3-yl)cyclobutanecarboxamide]",1000 to 10000 nM
4,"COc1ccc(-c2cncc(-c3cc(NC(=O)C4CCC4)cs3)n2)cc1OC [Example A7, N-(5-(6-(3,4-dimethoxyphenyl)pyrazin-2-yl)thiophen-3-yl)cyclobutanecarboxamide]",101 to 1000 nM
5,"COc1ccc(-c2cncc(-c3cc(NC(C)=O)cs3)n2)cc1OC [Example A3, N-(5-(6-(3,4-dimethoxyphenyl)pyrazin-2-yl)thiophen-3-yl)acetamide]",101 to 1000 nM
6,"CCCCC(=O)Nc1csc(-c2cncc(-c3ccc(O)c(F)c3)n2)c1 [Example A34, N-(5-(6-(3-fluoro-4-hydroxyphenyl)pyrazin-2-yl)thiophen-3-yl)pentanamide]",11 to 100 nM

# Continued, values first:
row,IC50,Structure (SMILES)
1,< 10 nM,"COc1cc(-c2cncc(-c3cc(NC(=O)CC4CC(F)C4)cs3)n2)ccc1C(=O)N(C)C1CC2(C1)CN(C)C2 (stereo not drawn) [Example B99, 4-(6-(4-(2-(3-fluorocyclobutyl)acetamido)thiophen-2-yl)pyrazin-2-yl)-2-methoxy-N-methyl-N-(2-methyl-2-azaspiro[3.3]heptan-6-yl)benzamide]"
2,11 to 100 nM,"CCCCC(=O)Nc1csc(-c2cncc(-c3ccc(C(=O)N(C4CC4)C4CCN(C5CC5)CC4)c(OC)c3)n2)c1 [Example B78, N-cyclopropyl-N-(1-cyclopropylpiperidin-4-yl)-2-methoxy-4-(6-(4-pentanamidothiophen-2-yl)pyrazin-2-yl)benzamide]"
3,101 to 1000 nM,"CCC1(CC(=O)Nc2csc(-c3cncc(-c4ccc(C(=O)N(C)C5CCN(C)CC5)c(OC)c4)n3)c2)CCC1 [Example B86, 4-(6-(4-(2-(1-ethylcyclobutyl)acetamido)thiophen-2-yl)pyrazin-2-yl)-2-methoxy-N-methyl-N-(1-methylpiperidin-4-yl)benzamide]"
4,11 to 100 nM,"COc1cc(-c2cncc(-c3cc(NC(=O)CC4CCC4)cs3)n2)ccc1S(=O)(=O)N(C)C1CCN(C)CC1 [Example B104, 2-cyclobutyl-N-(5-(6-(3-methoxy-4-(N-methyl-N-(1-methylpiperidin-4-yl)sulfamoyl)phenyl)pyrazin-2-yl)thiophen-3-yl)acetamide]"
5,101 to 1000 nM,"COc1cc(-c2cncc(-c3cc(NC(=O)CC4CCCCC4)cs3)n2)ccc1C(=O)Nc1nnnn1C [Example B28, 2-methoxy-4-(6-(4-(2-cyclohexylacetamido)thiophen-2-yl)pyrazin-2-yl)-N-(1-methyl-1H-tetrazol-5-yl)benzamide]"
6,11 to 100 nM,"COc1cc(-c2cncc(-c3cc(NC(=O)C(C)C4CCC4)cs3)n2)ccc1C(=O)N(C)C1CCN(C)CC1 (stereo not drawn) [Example B95, 4-(6-(4-(2-cyclobutylpropanamido)thiophen-2-yl)pyrazin-2-yl)-2-methoxy-N-methyl-N-(1-methylpiperidin-4-yl)benzamide]"
7,11 to 100 nM,"CCCCC(=O)Nc1csc(-c2cncc(-c3ccc(C(=O)O)c(OC)c3)n2)c1 [Example B2, 2-methoxy-4-(6-(4-pentanamidothiophen-2-yl)pyrazin-2-yl)benzoic acid]"
8,11 to 100 nM,"CCCCC(=O)Nc1csc(-c2cncc(-c3ccc(C(=O)N4CCOCC4)c(OC)c3)n2)c1 [Example B29, N-(5-(6-(3-methoxy-4-(morpholine-4-carbonyl)phenyl)pyrazin-2-yl)thiophen-3-yl)pentanamide]"
9,101 to 1000 nM,"COc1cc(-c2cncc(-c3cc(NC(=O)Cc4ccco4)cs3)n2)ccc1C(=O)Nc1nnn[nH]1 [Example B13, 2-methoxy-4-(6-(4-(2-(furan-2-yl)acetamido)thiophen-2-yl)pyrazin-2-yl)-N-(1H-tetrazol-5-yl)benzamide]"

# Source: patent US20240308992A1 (Biopolar Youtang(Guangdong) Pharmaceutical Co., Ltd., priority 2021, published 2024)
